What was measured:
p65 subunit of NF-κB = target: T1, p65 subunit of NF-κB (Homo sapiens, UniProt Q04206); assay: Confocal microscopy of p65 distribution in ATL cell lines; assay type: cell-based; details: MT-1 and TL-Om1; 10 μg/ml DHM2EQ, 24 hours
T1 construct: endogenous in cells; host or cells: ATL cell lines MT-1 and TL-Om1
Experimental: It is thought that DHM2EQ inhibits nuclear translocation of the p65 subunit of NF-κB. The ATL cell lines (MT-1 and TL-Om1) were treated with 10 μg/ml DHM2EQ for 24 hours and distribution of p65 was examined with a confocal microscope, using fluorescence-labeled anti-p65 antibody. The cell lines not treated with DHM2EQ were also examined in the same manner. In the figure, “−” and “+” indicate the results of DHM2EQ untreatment and DHM2EQ treatment, respectively.

[1] = system: human breast cancer cell line MCF-7; assay: In vitro proliferation of MCF-7 (trypan blue cell count); assay type: cell-based
Experimental: The human breast cancer cell line MCF-7 (NF-κB non-constitutively activated tumor) was incubated in 24, 48, and 72 hours in the presence of 10 and 50 μg/ml DHMEQ, and the proliferation-suppressive effect was examined.
MCF-7 was plated in 6 well plates at 1×10^5/well. The next day, the culture media were changed into those (5 ml) containing DHMEQ at 10 and 50 μg/ml and into the control medium (5 ml) containing only DMSO, which is used for dissolution of DHMEQ, in equal amount to those containing each concentration of DHMEQ. The assay was performed in three wells per each group. Immediately after the change, cells were incubated for 24, 48, and 72 hours. Subsequently, the cells were scraped with trypsin+EDTA. The number of cells was counted with trypan blue and averages as well as standard deviations were calculated. Data for each group were obtained and plotted in comparison with the control cells treated with DMSO only.

[2] = Acute toxicity test in ICR mice; assay type: in vivo; details: mouse, in vivo, intraperitoneal; ICR mice, abdominal cavity, 24 hours; read-out: acute toxicity LD 50
Experimental: (§1) An acute toxicity test of DHMEQ was performed as follows: DHMEQ was dissolved in one drop of 10% DMSO saline+Tween, administered to the abdominal cavity of ICR mice, and the mortality/survival and status of the mice after 24 hours were investigated.

ICR mice = assay: Acute toxicity test in ICR mice; assay type: in vivo; details: ICR mice i.p.
Experimental: as §1

[3] = system: MM cells (MM1, MM2, and MM3) of multiple myeloma patients; assay: MTT assay, MM cells from patients' bone marrow; assay type: cell-based, human; details: 10 μg/ml, 48 hours
Experimental: Next, to investigate the inhibitory effect of DHMEQ on proliferation of cells of multiple myeloma (MM) patients, MM cells (MM1, MM2, and MM3) were isolated from patients' bone marrow, incubated for 48 hours at the DHMEQ concentration of 10 μg/ml, and the proliferation-inhibitory effect was examined by the MTT assay. Peripheral blood mononuclear cells (PBMC) isolated from normal peripheral blood were used as control cells. In the figure, the vertical axis indicates the relative values of the MTT values of treated cells versus untreated cells, i.e., (DHMEQ-treated/untreated)×100%.

KMH2 = assay: MTT assay, KMH2 cells, DHMEQ combined with antitumor agents; assay type: cell-based; details: DHMEQ 10 μg/ml, 48 hours, with camptothecin, daunomycin or etoposide
Experimental: DHM2EQ was added to the ATL cell lines (MT-1 and TL-Om1) and a control cell line (K562) at a final concentration of 10 μg/ml and the cells were incubated for 12, 24, 48, and 72 hours. The proliferation-inhibitory effect was examined by the MTT assay. Cells to which the solvent DMSO had been added in equal volume were used as controls. Relative MTT values were obtained in the same manner as the aforementioned (1).
The effects of antitumor agents and the enhancing effect thereon were examined by the MTT assay method as described in Example 5(2).
In this example, the cells used were KMH2. The horizontal axes in FIG. 31 indicate the concentrations of each antitumor agent the DHMEQ concentration. The concentrations of each anticancer agent were set at three levels. The examination was performed on DHMEQ alone, the antitumor agent alone, or both in combination, at each level. DHMEQ was used at a concentration of 10 μg/ml and the treatment time was 48 hours. The vertical axis indicates the relative values of the MTT values of treated cells versus untreated cells, i.e., (treated/untreated)×100%.

[4] = system: ATL cell line MT-2 in SCID mice; assay: Survival of SCID mice intraperitoneally inoculated with ATL cell line MT-2; assay type: in vivo; details: for mice survived: p<0.05
Experimental: First, five-week-old male SCID mice (CB17-scid/scid; SLC Japan, Inc (Shizuoka, Japan)) were treated for 3 to 5 days with 1 mg of IL-2 receptor antibody (TM-β1; J. Immunol. 147: 2222-2228, 1991), and intraperitoneally inoculated with the ATL cell line MT-2 (3 to 4×10^7 cells). Subsequently, the mice were intraperitoneally given 4 mg/kg bw or 12 mg/kg bw DHMEQ dissolved in 5% carboxymethyl cellulose (CMC; Sigma) solution three times a week for one month, and their survival probability and status were observed. […] The survival curve was calculated by the Kaplan-Mayer method, and the statistically significant difference was determined by the Cox-Mantel test.

NF-κB = NF-κB (Homo sapiens, UniProt P19838+Q04206); assay: Gel shift assay of constitutive NF-κB activation in multiple myeloma cell lines; assay type: cell-based; parameters: endogenous in cells; host or cells: MM cell lines KMM1, RPMI8226, U266
Experimental: The ATL cell lines (MT-1 and TL-Om1) and the control cell lines (K562 and Jurkat+TNF), 2×10^6 cells each, were treated with 10 μg/ml DHM2EQ for 12 hours, and nuclear extract was prepared from each cell line. Likewise, nuclear extract was prepared also from the cell lines not treated with DHM2EQ. MT-1 and TL-Om1 are the cell lines transformed with HTLV-1; NF-κB is activated in these cell lines. K562 (myelocytic leukemia cell line) is a cell line in which constitutive NF-κB is not confirmed (a negative control), and Jurkat+TNF is a […] consensus oligomers (Promega) were end-labeled with [γ-^32P]-ATP and polynucleotide kinase (PNK) to prepare ^32P-labeled NF-κB probes.
The equivalent of 2 μg of nuclear extract protein was mixed with NF-κB probes (the equivalent of 10,000 cpm) in a volume of 20 μl and reacted at room temperature for 30 min. The solution after the reaction was subjected to 7.5% polyacrylamide gel electrophoresis. The gel was then dried and exposed to an X-ray film.
The MM cell lines, KMM1, RPMI8226, and U266 (2×10^6 cells each) were treated with 10 μg/ml of DHMEQ for 12 hours, and nuclear extract was prepared from each cell line. The gel shift assay was performed in the same method as in Example 4 and the inhibitory effect of DHMEQ on NF-κB was examined. […] The TNF-treated Jurkat (Jurkat+TNF) was used as the positive control.
Next, the MM cell lines, KMM1, RPMI8226, and U266 were treated with 10 μg/ml DHMEQ for 12 hours, and nuclear extract was prepared from each cell line. The gel shift assay was performed in the same method as in Example 4 (1) and the time-course inhibitory effect on NF-κB was examined.

NF-κB, sequence (Q04206 whole entry): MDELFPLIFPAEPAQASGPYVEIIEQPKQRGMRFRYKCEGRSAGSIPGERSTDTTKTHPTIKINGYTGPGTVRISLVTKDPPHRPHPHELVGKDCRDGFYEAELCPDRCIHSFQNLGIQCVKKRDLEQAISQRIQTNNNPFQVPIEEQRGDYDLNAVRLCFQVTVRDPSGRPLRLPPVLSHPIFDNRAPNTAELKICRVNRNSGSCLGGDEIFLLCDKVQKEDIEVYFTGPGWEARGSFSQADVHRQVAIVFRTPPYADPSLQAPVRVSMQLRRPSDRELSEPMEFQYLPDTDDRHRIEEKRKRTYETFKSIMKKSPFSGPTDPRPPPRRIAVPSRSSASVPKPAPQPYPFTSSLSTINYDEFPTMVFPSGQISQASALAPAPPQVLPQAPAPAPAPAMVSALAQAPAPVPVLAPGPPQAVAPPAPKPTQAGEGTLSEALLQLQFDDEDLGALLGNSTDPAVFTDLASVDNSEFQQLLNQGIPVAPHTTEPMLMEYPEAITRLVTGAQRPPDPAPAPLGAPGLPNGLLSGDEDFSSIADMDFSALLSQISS
NF-κB, sequence (P19838 1-433 limits assumed): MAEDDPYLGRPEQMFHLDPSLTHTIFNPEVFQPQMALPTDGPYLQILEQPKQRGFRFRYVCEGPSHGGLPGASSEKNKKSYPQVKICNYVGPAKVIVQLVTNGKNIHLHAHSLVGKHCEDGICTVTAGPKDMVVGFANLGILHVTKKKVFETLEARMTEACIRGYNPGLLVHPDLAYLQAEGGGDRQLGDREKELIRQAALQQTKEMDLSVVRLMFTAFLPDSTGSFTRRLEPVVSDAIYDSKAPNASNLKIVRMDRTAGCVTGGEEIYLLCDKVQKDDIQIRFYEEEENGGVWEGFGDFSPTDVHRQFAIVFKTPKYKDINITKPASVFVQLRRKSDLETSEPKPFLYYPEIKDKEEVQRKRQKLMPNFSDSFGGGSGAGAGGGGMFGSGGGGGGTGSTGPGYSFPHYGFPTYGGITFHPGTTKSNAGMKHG
T1 sequence (Q04206 whole entry): as the sequence (Q04206 whole entry) above

O=C(NC1=CC(=O)C2OC2C1O)c1ccccc1O (stereo not shown) [DHMEQ, 5,6-epoxy-4-hydroxy-3-salicyloylamino-2-cyclohexenone]
nuclear translocation of p65 (p65 subunit of NF-κB): inhibited | cells survived compared with the control ([1]; 10 μg/ml, 24 hours): 39% | cells survived compared with the control ([1]; 10 μg/ml, 48 hours): 25% | cells survived compared with the control ([1]; 10 μg/ml, 72 hours): 17% | cells survived compared with the control ([1]; 50 μ/ml, in and after 24 hours): no cells were observed to survive | LD50 at 24 h [2]: 188 mg/kg | mortality/survival after 24 hours (ICR mice; 5 mg/mouse (about 250 mg/kg)): dead on the day of administration | mortality/survival after 24 hours (ICR mice; 0.156, 0.313, 0.625, 1.25, or 2.5 mg/mouse): survived | proliferation of MM cells from patients (MTT) [3]: proliferation was suppressed | effect on the action of antitumor agents (MTT) (KMH2): enhances the effect of any antitumor agent used | mice survived ([4]; 4 mg/kg i.p. three times a week for one month, about 200 days, control all 5 dead): 4 out of 6 | mice survived ([4]; 12 mg/kg i.p. three times a week for one month, about 30 days, control 4 out of 5 dead): 5 out of 6 | toxicity, anomalies in body weights etc. ([4]; SCID mice, up to three volumes of 4 mg/kg): toxicity was not noted | signals by NF-κB (gel shift) (NF-κB; KMM1, RPMI8226, U266, 10 μg/ml DHMEQ, 12 hours): lost | persistence of inhibition of NF-κB activation (NF-κB; MM cell lines, 10 μg/ml): sustained even after a lapse of 16 hours | activation of NF-κB, time course (gel shift) (NF-κB; MM cell lines, 10 μg/ml, 1 hour after treatment): almost inhibited
